Assay results: patent publication US11040053B2, “Compositions and methods for activating “stimulator of interferon gene”13 dependent signalling” (CHINOOK THERAPEUTICS, INC., priority 2015, dated 2021)
Entries after “also recorded” stand apart in the source; their conditions may differ.

Experiments:
hSTING(REF) = hSTING(REF) (Homo sapiens, UniProt Q86WV6); assay: Differential scanning fluorometry (DSF) binding to purified hSTING REF allele; set-up: DNA encoding amino acids 140-379 (amino acid numbering corresponding to Swiss Prot Q86WV6); 6xHIS (N, cleaved yes); SUMO (N, cleaved yes); made in house; host or cells: Rosetta2 (DE3) E. coli; conditions: for Tm shift compared with non fluorine substituted compounds and 2′3′-(G)(A), in words: FIG. 2, hSTING (REF); for binding relative to OH reference compound, in words / binding relative to naturally produced 2′3′-(G)(A), in words: Table 4 comment, REF allele hSTING
B16.F10 = B16.F10 melanoma mouse model, intra-tumoral injection; assay type: in vivo, C57BL/6 female mice; conditions: FIG. 15A, IT 10 or 100 μg, three injections, vs HBSS
Procedure: (§1) To assess the ability of the fluorinated derivative compounds to promote anti-tumor immunity in diverse murine tumor models, tumor cells were implanted (in 100 μL PBS) subcutaneously on the lower back of 6-8 week old C57BL/6 female mice. Treatments began when tumors reached a volume of approximately 100 mm^3, on approximately day 14 post tumor implantation (see table below for tumor type, number of cells, and day of IT injection). The CDN compounds were administered by IT injection (10 or 100 μg in a total volume of 40 μL HBSS), and repeated every three days for a total of three injections. The compounds 3′3′-RR-(2′F-A)(2′F-A) and 3′3′-RR-(2′F-G)(2′F-A) and control mice given vehicle only (40 μL HBSS) were dosed. Tumors were measured twice weekly.

[1] = molecular target: T1, reference (REF) STING allele (Homo sapiens, UniProt Q86WV6); assay: Cytokine transcript induction (qRT-PCR) in STING^REF/REF hPBMCs; assay type: cell-based; conditions: for relative normalized IFNβ expression, in words: FIGS. 8A-B, 2 hours stimulation, 100 μM to 0.1 μM; for cytokine responses (IFNβ, TNFα, IL-6, IFNγ, IL-12p40 expression), in words: FIGS. 9B-13B, 2 hours and 6 hours stimulation
T1 construct: endogenous in cells
Procedure: (§2) The induction of type I interferon was measured in human primary blood mononuclear cells (hPBMCs) to evaluate the potency of mono- or di-F-CDN compounds as described herein. hPBMCs from two unique donors were used: one donor was homozygous for the wild type (WT) STING allele (STING^WT/WT) and the other donor was homozygous for the so-called reference (REF) STING allele (STING^REF/REF). The STING genotype of these donors was determined by PCR amplification and sequencing: genomic DNA was isolated from 10^4 hPBMCs using Quick Extract DNA Extraction Solution (Epicentre) and was used to amplify regions of exon 3, 6, and 7 of the human STING gene.
(§3) Cells were incubated at 37° C., 5% CO2 with concentrations ranging from 100 μM to 0.1 μM of each CDN. After 2 hours (FIGS. 7 and 8) or 2 hours and 6 hours (FIGS. 9-13) stimulation, cells were harvested by centrifugation and washed once with phosphate-buffered saline. Cellular RNA was isolated using the Aurum Total RNA 96 Kit and cDNA was synthesized using the iScript cDNA Synthesis Kit. Target and reference gene expression was assessed by real-time qRT-PCR using PrimePCR probe assays and the CFX96 gene cycler (all reagents and equipment from BioRad). Normalized IFNβ expression was expressed relative to untreated cells. Target genes included type I interferon (IFNβ), Th1-associated cytokines (IFNγ, IL-12p40) and NF-kB dependent inflammatory cytokines (TNFα, IL-6). Reference genes included GUSB alone (FIGS. 7 and 8) or GUSB and HSP90AB1 (FIGS. 9-13).

hSTING(WT) = hSTING(WT) (Homo sapiens, UniProt Q86WV6, H232R); assay: IFN-β luciferase reporter in HEK293T cells stably expressing hSTING(WT), digitonin permeabilization; conditions: FIGS. 5A-B, 0.1 μM to 100 μM and 6.25 μM CDN
Procedure: 24 hours later, cells were stimulated with native and synthetic CDN derivative molecules using digitonin permeabilization to ensure uniform uptake.
After 20 min, the stimulation mixtures were removed and 200 ul of DMEM media supplemented with 10% (vol/vol) fetal bovine serum, 1% L-Glutamine, and 1% Penicillin/Streptomycin was added. Cells were incubated an additional 6 hours (37° C., 5% CO2) and then cell lysates were prepared and reporter gene activity measured on a Spectramax M3 luminometer using the Dual-Glo Luciferase Assay System (Promega, catalog #E2920) as described by the manufacturer. IFNβ firefly luciferase reporter gene activity was normalized to TK renilla luciferase gene activity and plotted as fold induction over activity in unstimulated cells (mean+/−s.e.m.).

MC38 = MC38 colon carcinoma mouse model, intra-tumoral injection; assay type: in vivo, C57BL/6 female mice; conditions: FIG. 15B, IT 10 or 100 μg, three injections, vs HBSS
Procedure: as §1

HAQ allele hSTING = molecular target: T2, HAQ allele hSTING (Homo sapiens, UniProt Q86WV6, G230A/H232R/R293Q); assay: Differential scanning fluorometry (DSF) binding to purified hSTING HAQ allele; conditions: for binding relative to OH reference compound, in words / binding relative to naturally produced 2′3′-(G)(A), in words: Table 4 comment, HAQ allele hSTING
T2 construct: DNA encoding amino acids 140-379 (amino acid numbering corresponding to Swiss Prot Q86WV6); 6xHIS (N, cleaved yes); SUMO (N, cleaved yes); made in house; host or cells: Rosetta2 (DE3) E. coli

[2] = molecular target: T3, wild type (WT) STING allele (Homo sapiens, UniProt Q86WV6, H232R); assay: Cytokine transcript induction (qRT-PCR) in STING^WT/WT hPBMCs; assay type: cell-based; conditions: for relative normalized IFNβ expression, in words: FIGS. 7A-B, 2 hours stimulation, 100 μM to 0.1 μM
T3 construct: one donor was homozygous for the wild type (WT) STING allele; endogenous in cells; host or cells: human PBMCs, donor STING WT/WT
Procedure: as §2, §3

[3] = listed as 3′3′-RR-(2′F-G)(2′F-A)
[4] = DSF, 1 mg/ml STING AA140-379, ligand 1 mM
[5] = listed as 3′3′-RR-(2′F-A)(2′F-A)

Sequence of hSTING(REF) (Q86WV6 140-379): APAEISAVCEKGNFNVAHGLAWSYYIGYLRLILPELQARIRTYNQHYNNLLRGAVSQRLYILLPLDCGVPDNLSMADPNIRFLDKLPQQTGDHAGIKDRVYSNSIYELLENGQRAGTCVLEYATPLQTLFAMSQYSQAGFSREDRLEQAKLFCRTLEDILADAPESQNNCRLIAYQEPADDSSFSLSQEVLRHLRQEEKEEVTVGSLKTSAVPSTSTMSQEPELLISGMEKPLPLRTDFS
T2 sequence (Q86WV6 140-379 G230A/H232R/R293Q limits assumed): as the sequence (Q86WV6 140-379) above, with G91A, H93R, R154Q counted along it
T1 sequence (Q86WV6 whole entry): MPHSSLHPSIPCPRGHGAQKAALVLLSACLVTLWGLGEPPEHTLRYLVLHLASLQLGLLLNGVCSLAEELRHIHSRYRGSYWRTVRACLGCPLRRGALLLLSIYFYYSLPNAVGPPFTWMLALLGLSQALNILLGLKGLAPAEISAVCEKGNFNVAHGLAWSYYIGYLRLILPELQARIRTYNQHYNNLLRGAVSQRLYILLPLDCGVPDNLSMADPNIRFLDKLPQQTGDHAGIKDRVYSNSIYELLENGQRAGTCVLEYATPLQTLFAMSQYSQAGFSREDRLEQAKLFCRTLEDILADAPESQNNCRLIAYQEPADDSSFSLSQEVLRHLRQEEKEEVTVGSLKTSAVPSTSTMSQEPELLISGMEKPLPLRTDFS
Sequence of hSTING(WT) (Q86WV6 whole entry H232R): as the sequence (Q86WV6 whole entry) above, with H232R counted along it
T3 sequence (Q86WV6 whole entry H232R): as the sequence (Q86WV6 whole entry) above, with H232R counted along it

Nc1nc2c(ncn2[C@@H]2O[C@@H]3CO[P@@](=O)(S)O[C@H]4[C@@H](F)[C@H](n5cnc6c(N)ncnc65)O[C@@H]4CO[P@@](=O)(S)O[C@H]3[C@H]2F)c(=O)[nH]1 (stereo in doubt) [Compound 14, 2-Amino-9-((2R,3R,3aR,5R,7aR,9R,10R,10aR,12R,14aR)-9-(6-amino-9H-purin-9-yl)-3,10-difluoro-5,12-dimercapto-5,12-dioxidooctahydro-2H,7H-difuro [3,2-d:3′,2′-j][1,3,7,9]tetraoxa[2,8]diphosphacyclododecin-2-yl)-1,9-dihydro-6H-purin-6-one]
Tm shift compared with non fluorine substituted compounds and 2′3′-(G)(A), in words (hSTING(REF)): increased Tm shift
binding relative to OH reference compound, in words (hSTING(REF)): improved binding
binding relative to naturally produced 2′3′-(G)(A), in words (hSTING(REF)): improved binding
tumor volume, in words (B16.F10): induced significant tumor inhibition as compared to HBSS
IFNβ transcript level compared to cells similarly dosed with 2′3′-(G)(A) [1]: 12- to 70 fold
relative normalized IFNβ expression, in words [1, 3]: stimulated dose-dependent production of IFNβ transcript; also recorded: more potent inducers of IFNβ transcript STING^REF/REF hPBMCs than 2′3′-(G)(A); also recorded: extremely potent stimulator of the REF STING allele
cytokine responses (IFNβ, TNFα, IL-6, IFNγ, IL-12p40 expression), in words [1]: induced more robust dose-dependent responses of each of the cytokines tested
IFNβ luciferase reporter induction by hSTING(WT), in words (hSTING(WT); [3]): strongly induced IFNβ reporter activity by hSTING(WT); also recorded: more potently induced IFNβ reporter activity by hSTING(WT) than the compound 3′3′-(G)(A)
tumor volume, in words (MC38): elicited complete tumor regression at all doses tested
binding relative to OH reference compound, in words (HAQ allele hSTING): improved binding
binding relative to naturally produced 2′3′-(G)(A), in words (HAQ allele hSTING): improved binding
relative normalized IFNβ expression, in words [2]: most potent inducer of type I interferon in STING^WT/WT hPBMCs
IFNβ level compared to the parent cGAMP compound ([2]; in the dose range tested): 10-100 fold

Nc1ncnc2c1ncn2[C@@H]1O[C@@H]2CO[P@@](=O)(S)O[C@H]3[C@@H](F)[C@H](n4cnc5c(N)ncnc54)O[C@@H]3CO[P@@](=O)(S)O[C@H]2[C@H]1F [Compound 6, (2R,3R,3aR,5R,7aR,9R,10R,10aR,12R,14aR)-2,9-bis(6-amino-9H-purin-9-yl)-3,10-difluoro-5,12-dimercaptooctahydro-2H,7H-difuro[3,2-d:3′,2′-j][1,3,7,9]tetraoxa[2,8]diphosphacyclododecine 5,12-dioxide]
hSTING Tm Shift REF (hSTING(REF); [4]): 9.1 °C
Tm shift compared with non fluorine substituted compounds and 2′3′-(G)(A), in words (hSTING(REF)): increased Tm shift
binding relative to OH reference compound, in words (hSTING(REF)): improved binding
binding relative to naturally produced 2′3′-(G)(A), in words (hSTING(REF)): improved binding
tumor volume, in words (B16.F10; [5]): induced significant tumor inhibition as compared to HBSS; also recorded: complete tumor regression at the 100 μg dose
relative normalized IFNβ expression, in words [1, 5]: stimulated dose-dependent production of IFNβ transcript; also recorded: more potent inducers of IFNβ transcript STING^REF/REF hPBMCs than 2′3′-(G)(A)
cytokine responses (IFNβ, TNFα, IL-6, IFNγ, IL-12p40 expression), in words [1]: induced more robust responses of all of the cytokines tested
IFNβ luciferase reporter induction by hSTING(WT), in words (hSTING(WT); [5]): induced higher levels of IFNβ reporter activity by hSTING(WT) than the non-fluorine substituted compounds; also recorded: stimulated higher levels of IFNβ reporter activity by hSTING(WT) when compared to the endogenous cellular ligand 2′3′-(G)(A)
tumor volume, in words (MC38): elicited complete tumor regression at all doses tested
hSTING Tm Shift HAQ (HAQ allele hSTING; [4]): 32.4 °C
binding relative to OH reference compound, in words (HAQ allele hSTING): improved binding
binding relative to naturally produced 2′3′-(G)(A), in words (HAQ allele hSTING): improved binding
relative normalized IFNβ expression, in words [2, 5]: induced similar levels of IFNβ; also recorded: induced higher levels of IFNβ transcript when compared to the 3′3′-(A)(A) compound; also recorded: stimulated higher levels of IFNβ transcript by STING^WT/WT hPBMCs when compared to non-canonical 2′3′-(G)(A)
